The values below come from US20050124963A1, “Method for treating aspects of alcoholism, addiction and psychosis” (priority 2003, published 2005).

The target in assay [1] is T1, high-affinity state of dopamine D2 receptor (D2High) (Rattus norvegicus, UniProt P61169). The settings on record: 7 days withdrawal, [3H]PHNO.
The target in assay [2] is T1, high-affinity state of dopamine D2 receptor (D2High).
Assay [3] deals with high-affinity states of D2. Particulars: rats sensitized to amphetamine; cited from earlier work.
The subject of assay [4] is high-affinity state of dopamine D2 receptor (D2High). Type of assay: in vivo, rat.
The target of another assay is D2 receptor (Homo sapiens, UniProt P14416). The settings on record: 1-100 nM dopamine, in vitro; cited from earlier work.
Another assay deals with T2, striatal D2 receptors (Rattus norvegicus, UniProt P61169).
T2 construct: each rat underwent CO2 narcosis and cervical dislocation; the striata were removed; from tissue; host or cells: rat striatum (male Sprague Dawley)
Kind of assay: [3H]PHNO binding to striatal D2 receptors. Particulars: control striata. The protocol:
To induce ethanol dependence, rats (male Sprague Dawley, 200 g) received an intraperitoneal injection of 0.9% NaCl or 2 g/kg ethanol twice daily (i.e., 1.4 ml of 18% ethanol [in 0.9% NaCl] per 100 g at 9 AM and again at 3 PM daily) for 10 days (Lindholm et al., Alcohol 22: 165-171, 2000). On different days during the withdrawal period, each rat underwent CO2 narcosis and cervical dislocation; the striata were removed. The frozen (−70° C.) striata were blotted and weighed. […] The binding of [^3H]PHNO (or [+]-4-propyl-9-hydroxynaphthoxazine) (0.1 to 4.5 nM; […]; custom synthesized by New England Nuclear Corp.; non-specific binding defined by 10 μM S-(−)-sulpiride) to striatal D2 receptors was done as reported elsewhere (Seeman et al., Synapse 14: 254-262, 1993; Synapse 46: 235-239, 2002).
To confirm the elevation of D2^High sites by another method, [^3H]PHNO (or [+]-4-propyl-9-hydroxynaphthoxazine), a selective D2 agonist (Seeman et al., Synapse 14: 254-262, 1993) can be used.

The mark [5] stands for this setting: first eight days after stopping ethanol, [3H]raclopride.

SMILES strings stand for the structures. Like-named read-outs stand apart in the source and are kept apart here.

T1 sequence (P61169 whole entry): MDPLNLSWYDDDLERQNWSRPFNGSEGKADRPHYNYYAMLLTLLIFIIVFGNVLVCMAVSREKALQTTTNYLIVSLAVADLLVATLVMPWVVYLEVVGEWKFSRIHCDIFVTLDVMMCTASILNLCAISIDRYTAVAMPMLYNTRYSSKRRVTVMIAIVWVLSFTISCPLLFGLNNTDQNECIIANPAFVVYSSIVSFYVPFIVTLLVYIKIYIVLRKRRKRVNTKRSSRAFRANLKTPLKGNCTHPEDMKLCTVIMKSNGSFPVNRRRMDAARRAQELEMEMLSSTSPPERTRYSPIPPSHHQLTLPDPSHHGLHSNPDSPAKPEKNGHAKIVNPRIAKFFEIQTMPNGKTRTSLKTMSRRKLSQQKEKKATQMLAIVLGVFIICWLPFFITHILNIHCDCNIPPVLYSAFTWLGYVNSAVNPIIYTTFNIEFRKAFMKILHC
D2 receptor, sequence (P14416 whole entry): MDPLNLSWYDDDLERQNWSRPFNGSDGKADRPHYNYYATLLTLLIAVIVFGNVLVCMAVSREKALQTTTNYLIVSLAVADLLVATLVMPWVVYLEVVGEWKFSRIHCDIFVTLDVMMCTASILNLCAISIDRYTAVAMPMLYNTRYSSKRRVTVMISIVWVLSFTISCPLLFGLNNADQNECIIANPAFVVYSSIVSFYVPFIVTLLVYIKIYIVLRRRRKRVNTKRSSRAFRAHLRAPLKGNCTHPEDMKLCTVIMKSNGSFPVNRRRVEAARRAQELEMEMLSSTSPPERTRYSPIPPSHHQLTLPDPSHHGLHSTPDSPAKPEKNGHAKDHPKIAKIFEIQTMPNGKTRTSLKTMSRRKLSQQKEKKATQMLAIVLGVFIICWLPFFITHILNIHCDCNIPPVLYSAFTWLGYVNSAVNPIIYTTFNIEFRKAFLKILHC
T2 sequence (P61169 whole entry): as the sequence (P61169 whole entry) above

On to `CCO` [ethanol], for which, in assay [1], the “increase of D2High over control value of 2.6 pmol/g” value is 273%. In assay [1] (ethanol-treated striata), this molecule showed a D2High of 7.1 pmol/g. Besides, the “duration of elevation of D2High sites after ethanol withdrawal” value in assay [2] (before returning to normal) was “almost two weeks”. In addition, in assay [2] (day 15 after stopping ethanol (back to normal)), the D2High sites is listed as at most 2 pmol/g. In assay [2] (days 11 and 12 after stopping ethanol), this molecule returned a D2High sites of 4.8 pmol/g. For the same molecule, the “increase in D2High” value in assay [2] (ethanol-withdrawn) came out at 3.2 fold. Further, in assay [2] (first eight days after stopping ethanol (2 g/kg i.p. twice daily, 10 days), [3H]raclopride, no guanilylimidodiphosphate), the D2 density amounted to 19 ± 0.8 pmol/g. In addition, in assay [2] (setting [5]), the “D2High density (increase in receptor density with guanilylimidodiphosphate)” value was 7.2 ± 0.6 pmol/g and the “D2 density in the presence of guanilylimidodiphosphate” value worked out at 26.1 ± 0.8 pmol/g. For the same molecule, the “increase of D2High over control value of 2 pmol/g” value in assay [2] (upon withdrawal of ethanol, [3H]raclopride) is 360%.

Turning to `CC(N)Cc1ccccc1` (stereo not drawn) [amphetamine], in assay [3], the “elevation of high-affinity states of D2” value is given as “over 350%”.

For the molecule `FC(F)OC(Cl)C(F)(F)F` (stereo not drawn) [isoflurane], the D2High density in assay [4] (ethanol-treated rats five days into withdrawal, isoflurane one hour (deep stage 3 surgical anesthesia), striata 24 hours later) is 1.3 pmol/g. Besides, in assay [4] (one hour of deep general anesthesia, ethanol-withdrawn rats), the “effect on elevated D2High” value was “restored D2^High to normal”.

Regarding `CCN1CCC[C@H]1CNC(=O)c1c(O)c(Cl)cc(Cl)c1OC` (racemic) [[^3H]raclopride], the “displacement by low concentrations of dopamine” value at D2 receptor was “not significantly displaced”.

On striatal D2 receptors, `CCCN1CCOC2c3cc(O)ccc3CCC21` (stereo not drawn) [[^3H]PHNO, [+]-4-propyl-9-hydroxynaphthoxazine] registered a Kd of 0.71 nM.
